Measured values published in patent US20170015555A1, “LONG-TERM PRESERVATION AND NOVEL APPLICATION OF CHLOROUS ACID AQUEOUS SOLUTION FORMULATION” (priority 2013, published 2017).

What was measured:
Type in all cases: cell-based
[1] = system: Enterohemorrhagic Escherichia coli O157; experiment: Sterilizing effect on floor surface after wiping off imitation vomit, carpet; details: 1000 ppm available chlorine
From the text: (§1) 1) Chlorous acid aqueous solution formulation (see Example 1: Table 11) Treatment sheet (material: 100% cotton): (about 27×40 cm) *Impregnated at a ratio of weight of treatment sheet (g): amount of liquid (ml)=1:3 2) Imitation vomit Miso solution: adjusted to pH of 2 with hydrochloric acid 3) Test Microbes that were Used E. coli: Escherichia coli IF03927 Staphylococcus aureus: Staphylococcus aureus IF0 12732 Thermoduric Microbes (Bacillus cereus): Bacillus cereus NBRC15305 Microbes of the genus Salmonella: Salmonella Enteritidis IF03313 Enterohemorrhagic Escherichia coli O157: Escherichia coli O157 Enterohemorrhagic Escherichia coli O111: Escherichia coli O111 Enterohemorrhagic Escherichia coli O26: Escherichia coli O26
(§2) (1) Imitation vomit was spread in an area about the size of an A4 sheet. (2) 5 dry sheets were laid thereon. (3) An agent solution was poured on the dry sheets to wipe off the imitation vomit. (4) A cotton swab was soaked with sterile saline. A portion where imitation vomit was spread was scrubbed with the cotton swab to collect microbes remaining on the floor. After suspending in saline, the solution was spread on a petri dish and cultured. The number of each of the microbes was measured. (5) Test operations 3 and 4 were repeated a total of 7 times (repeated until the imitation vomit could be removed completely).

[2] = system: Bacillus cereus NBRC15305; experiment: as above
From the text: as §1, §2

[3] = system: Enterohemorrhagic Escherichia coli O26; experiment: as above; details: 1000 ppm available chlorine
From the text: as §1, §2

[4] = system: Staphylococcus aureus IF0 12732; experiment: as above; details: 1000 ppm available chlorine
From the text: as §1, §2

[5] = system: E. coli: Escherichia coli IF03927; experiment: as above; details: 1000 ppm available chlorine
From the text: as §1, §2

[6] = system: Enterohemorrhagic Escherichia coli O111; experiment: as above
From the text: as §1, §2

[7] = system: Staphylococcus aureus IF0 12732; experiment: Sterilizing effect on floor surface after wiping off imitation vomit, rubber mattress; details: 1000 ppm available chlorine
From the text: as §1
as §2, with “agent solution-containing treatment” for “dry”, “The imitation vomit” for “An agent solution”, “wiped off.” for “poured on the dry sheets to wipe off the imitation vomit.”

[8] = system: E. coli: Escherichia coli IF03927; experiment: as above; details: 1000 ppm available chlorine
From the text: as §1
as §2, with “agent solution-containing treatment” for “dry”, “The imitation vomit” for “An agent solution”, “wiped off.” for “poured on the dry sheets to wipe off the imitation vomit.”

[9] = system: Enterohemorrhagic Escherichia coli O111; experiment: as above
From the text: as §1
as §2, with “agent solution-containing treatment” for “dry”, “The imitation vomit” for “An agent solution”, “wiped off.” for “poured on the dry sheets to wipe off the imitation vomit.”

[10] = system: Enterohemorrhagic Escherichia coli O157; experiment: Permeability of pathogenic microbes when treatment sheets were laid on vomit; details: 1000 ppm available chlorine
From the text: 1) Chlorous acid aqueous solution formulation (see Example 1: Table 11) Treatment sheet (material: 100% cotton): (about 27×40 cm) *Impregnated at a ratio of weight of treatment sheet (g): amount of liquid (ml)=1:3 2) Imitation vomit (hereinafter, referred to as vomit) Miso solution: adjusted to pH 2 with hydrochloric acid 3) Test Microbes that were used E. coli: Escherichia coli IF03927 Staphylococcus aureus: Staphylococcus aureus IF0 12732 Thermoduric Microbes (Bacillus cereus): Bacillus cereus NBRC15305 Microbes of the genus Salmonella: Salmonella Enteritidis IF03313 Enterohemorrhagic Escherichia coli 0157: Escherichia coli 0157 Enterohemorrhagic Escherichia coli 0111: Escherichia coli 0111 Enterohemorrhagic Escherichia coli 026: Escherichia coli O26
Permeability of pathogenic microbes into a treatment sheet when treating vomit was examined to compare effects of preventing secondary contamination. (1) Imitation vomit is spread in an area about the size of an A4 sheet. (2) 30 agent solution-containing treatment sheets were laid thereon and left standing for 10 minutes. (3) Treatment sheets were removed one at a time from the top. After diluting with saline, the sample was spread in a petri dish and cultured.

[11] = stored at 25° C. Day 0, 1000 ppm available chlorine
[12] = stored at 25° C. Day 7, Sodium Hypochlorite, 0 ppm
[13] = stored at 25° C. Day 0, 1000 ppm
[14] = 1000 ppm available chlorine, stored at 25° C. Day 0
[15] = 1000 ppm, stored at 25° C. Day 7

## OCl [Sodium Hypochlorite, sodium hypochlorite]
[1]; stored at 25° C. Day 0
  Number of Times Wiped 1 Time (remaining microbes): <10
  Number of Times Wiped 2 Times (remaining microbes): <10
  Number of Times Wiped 3 Times (remaining microbes): <10
[1]; stored at 25° C. Day 7
  Number of Times Wiped 1 Time (remaining microbes): <10
  Number of Times Wiped 2 Times (remaining microbes): <10
  Number of Times Wiped 3 Times (remaining microbes): <10
[2]; [11]
  Number of Times Wiped 1 Time (remaining microbes): <10
  Number of Times Wiped 2 Times (remaining microbes): <10
  Number of Times Wiped 3 Times (remaining microbes): <10
[2]; [12]
  Number of Times Wiped 1 Time (remaining microbes): 6.7 × 10^3
  Number of Times Wiped 2 Times (remaining microbes): 5.2 × 10^3
  Number of Times Wiped 3 Times (remaining microbes): 4.9 × 10^3
  Number of Times Wiped 7 Times (remaining microbes): 2.0 × 10^3
[3]; Day 0 at 25° C.
  Microbes remaining on floor surface, wiped 1 Time: <10
  Microbes remaining on floor surface, wiped 2 Times: <10
  Microbes remaining on floor surface, wiped 3 Times: <10
[3]; Day 7 at 25° C.
  Microbes remaining on floor surface, wiped 1 Time: 8.8 × 10^3
  Microbes remaining on floor surface, wiped 2 Times: 4.9 × 10^3
  Microbes remaining on floor surface, wiped 3 Times: 3.0 × 10^3
[4]; stored at 25° C. Day 0
  Number of Times Wiped 1 Time (remaining microbes): <10
  Number of Times Wiped 2 Times (remaining microbes): <10
  Number of Times Wiped 3 Times (remaining microbes): <10
[4]; stored at 25° C. Day 7
  Number of Times Wiped 1 Time (remaining microbes): <10
  Number of Times Wiped 2 Times (remaining microbes): <10
  Number of Times Wiped 3 Times (remaining microbes): <10
[5]; stored at 25° C. Day 0
  Number of Times Wiped 1 Time (remaining microbes): <10
  Number of Times Wiped 2 Times (remaining microbes): <10
  Number of Times Wiped 3 Times (remaining microbes): <10
[5]; stored at 25° C. Day 7
  Number of Times Wiped 1 Time (remaining microbes): <10
  Number of Times Wiped 2 Times (remaining microbes): <10
  Number of Times Wiped 3 Times (remaining microbes): <10
[6]; [13]
  Number of Times Wiped 1 Time (remaining microbes): <10
  Number of Times Wiped 2 Times (remaining microbes): <10
  Number of Times Wiped 3 Times (remaining microbes): <10
[6]; [12]
  Number of Times Wiped 1 Time (remaining microbes): 2.3 × 10^3
  Number of Times Wiped 2 Times (remaining microbes): 1.9 × 10^3
  Number of Times Wiped 3 Times (remaining microbes): 1.1 × 10^3
[7]; Day 0 at 25° C.
  Microbe count on floor, wiped 1 Time: <10
  Microbe count on floor, wiped 2 Times: <10
  Microbe count on floor, wiped 3 Times: <10
[7]; Day 7 at 25° C.
  Microbe count on floor, wiped 1 Time: 8.7 × 10^6
  Microbe count on floor, wiped 2 Times: 7.3 × 10^3
  Microbe count on floor, wiped 3 Times: 3.3 × 10^3
[8]; Day 0 at 25° C.
  Microbe count on floor, wiped 1 Time: <10
  Microbe count on floor, wiped 2 Times: <10
  Microbe count on floor, wiped 3 Times: <10
[8]; Day 7 at 25° C.
  Microbe count on floor, wiped 1 Time: 2.3 × 10^4
  Microbe count on floor, wiped 2 Times: 7.8 × 10^3
  Microbe count on floor, wiped 3 Times: 2.1 × 10^3
[9]; [14]
  microbes remaining, wiped 1 Time: <10
  microbes remaining, wiped 2 Times: <10
  microbes remaining, wiped 3 Times: <10
[9]; [15]
  microbes remaining, wiped 1 Time: 1.5 × 10^3
  microbes remaining, wiped 2 Times: 1.0 × 10^3
  microbes remaining, wiped 3 Times: 2.6 × 10^2
  microbes remaining, wiped 7 Times: <10
[10]; Day 0 at 25° C.
  Microbe count, 1 sheet laid on imitation vomit: <10
  Microbe count, 2 sheets laid on imitation vomit: <10
  Microbe count, 3 sheets laid on imitation vomit: <10
  Microbe count, 4 sheets laid on imitation vomit: <10
  Microbe count, 5 sheets laid on imitation vomit: <10
  Microbe count, 6 sheets laid on imitation vomit: <10
  Microbe count, 8 sheets laid on imitation vomit: <10
  Microbe count, 10 sheets laid on imitation vomit: <10
  Microbe count, 20 sheets laid on imitation vomit: <10
  Microbe count, 30 sheets laid on imitation vomit: <10
[10]; Day 7 at 25° C.
  Microbe count, 1 sheet laid on imitation vomit: >10^6
  Microbe count, 2 sheets laid on imitation vomit: >10^6
  Microbe count, 3 sheets laid on imitation vomit: >10^6
  Microbe count, 4 sheets laid on imitation vomit: >10^6
  Microbe count, 5 sheets laid on imitation vomit: >10^6
  Microbe count, 6 sheets laid on imitation vomit: >10^6
  Microbe count, 8 sheets laid on imitation vomit: 1.1 × 10^4
  Microbe count, 10 sheets laid on imitation vomit: 7.1 × 10^2
  Microbe count, 20 sheets laid on imitation vomit: <10
  Microbe count, 30 sheets laid on imitation vomit: <10
